Measurements reported in PubChem BioAssay (NCI).
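All cell lines were grown in 96-well plates and treated with compound for 48 hours. TGI: total growth inhibition.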

Key:
Assay in all cases: growth of human tumour cells (NCI), 48 h
RPMI-8226 leukemia = tested on: RPMI-8226 leukemia
HS 578T breast = tested on: HS 578T breast
SR leukemia = tested on: SR leukemia
NCI-H226 lung = tested on: NCI-H226 lung
OVCAR-5 ovarian = tested on: OVCAR-5 ovarian
TK-10 renal = tested on: TK-10 renal
MOLT-4 leukemia = tested on: MOLT-4 leukemia
T-47D breast = tested on: T-47D breast
SK-MEL-28 melanoma = tested on: SK-MEL-28 melanoma
IGROV1 ovarian = tested on: IGROV1 ovarian
K-562 leukemia = tested on: K-562 leukemia
MALME-3M melanoma = tested on: MALME-3M melanoma
SK-OV-3 ovarian = tested on: SK-OV-3 ovarian
NCI/ADR-RES ovarian = tested on: NCI/ADR-RES ovarian
HCT-116 colon = tested on: HCT-116 colon
HL-60(TB) leukemia = tested on: HL-60(TB) leukemia
SF-295 CNS = tested on: SF-295 CNS
SW-620 colon = tested on: SW-620 colon
OVCAR-3 ovarian = tested on: OVCAR-3 ovarian
HCT-15 colon = tested on: HCT-15 colon
KM12 colon = tested on: KM12 colon
MDA-N = tested on: MDA-N
SN12C renal = tested on: SN12C renal
EKVX NSCLC = tested on: EKVX NSCLC
MDA-MB-435 = tested on: MDA-MB-435
MDA-MB-231 breast = tested on: MDA-MB-231 breast
NCI-H23 lung = tested on: NCI-H23 lung
HCC-2998 colon = tested on: HCC-2998 colon
PC-3 prostate = tested on: PC-3 prostate
SNB-75 CNS = tested on: SNB-75 CNS
HT29 colon = tested on: HT29 colon
UO-31 renal = tested on: UO-31 renal
OVCAR-8 ovarian = tested on: OVCAR-8 ovarian
SK-MEL-5 melanoma = tested on: SK-MEL-5 melanoma
ACHN renal = tested on: ACHN renal
CAKI-1 renal = tested on: CAKI-1 renal
786-0 renal = tested on: 786-0 renal
A549 NSCLC = tested on: A549 NSCLC
M14 melanoma = tested on: M14 melanoma
SF-539 CNS = tested on: SF-539 CNS
SNB-19 CNS = tested on: SNB-19 CNS
HOP-62 NSCLC = tested on: HOP-62 NSCLC
MCF7 breast = tested on: MCF7 breast
A498 renal = tested on: A498 renal
UACC-62 melanoma = tested on: UACC-62 melanoma
UACC-257 melanoma = tested on: UACC-257 melanoma
RXF 393 renal = tested on: RXF 393 renal
COLO 205 colon = tested on: COLO 205 colon
DU-145 prostate = tested on: DU-145 prostate
CCRF-CEM leukemia = tested on: CCRF-CEM leukemia
NCI-H460 lung = tested on: NCI-H460 lung
SF-268 CNS = tested on: SF-268 CNS
OVCAR-4 ovarian = tested on: OVCAR-4 ovarian
SK-MEL-2 melanoma = tested on: SK-MEL-2 melanoma

Measured: TGI

CC1CC(C)C(C#N)N(C)c2ccccc21 (centres undefined)
64.9 µM: HL-60(TB) leukemia
92.2 µM: SR leukemia
> 100 µM: RPMI-8226 leukemia | HS 578T breast | NCI-H226 lung | OVCAR-5 ovarian | TK-10 renal | MOLT-4 leukemia | T-47D breast | SK-MEL-28 melanoma | IGROV1 ovarian | K-562 leukemia | MALME-3M melanoma | SK-OV-3 ovarian | NCI/ADR-RES ovarian | HCT-116 colon | SF-295 CNS | SW-620 colon | OVCAR-3 ovarian | HCT-15 colon | KM12 colon | MDA-N | SN12C renal | EKVX NSCLC | MDA-MB-435 | MDA-MB-231 breast | NCI-H23 lung | HCC-2998 colon | PC-3 prostate | SNB-75 CNS | HT29 colon | UO-31 renal | OVCAR-8 ovarian | SK-MEL-5 melanoma | ACHN renal | CAKI-1 renal | 786-0 renal | A549 NSCLC | M14 melanoma | SF-539 CNS | SNB-19 CNS | HOP-62 NSCLC | MCF7 breast | A498 renal | UACC-62 melanoma | UACC-257 melanoma | RXF 393 renal | COLO 205 colon | DU-145 prostate | CCRF-CEM leukemia | NCI-H460 lung | SF-268 CNS | OVCAR-4 ovarian | SK-MEL-2 melanoma
